Measurements reported in US20250313588A1, “NOVEL PYRROLOPYRIMIDINONE CARBOXAMIDE COMPOUND FOR INHIBITING CDK, STEREOISOMER THEREOF OR PHARMACEUTICALLY ACCEPTABLE SALT THEREOF, AND PHARMACEUTICAL COMPOSITION FOR TREATING CANCER, COMPRISING SAME AS ACTIVE INGREDIENT” (Seoul National University R&DB Foundation, priority 2022, published 2025).
Each block holds one compound with its values, some of them ahead of it.

How the values were obtained:
[1] = Plasma metabolic stability assay (human plasma); details: for half-life at 5 μM: human, plasma; for plasma stability (in words): summary of Table 1, 'in each group'
Protocol: (§4) DMSO was used as a diluent to prepare stock solutions of a test substance and a positive control at a concentration of 10 mM. The positive control stock solution was then diluted with 70% acetonitrile to a working concentration of 0.2 mM, and then the test substance stock solution was diluted with 70% acetonitrile to a working concentration of 1 mM. A quench reagent consisted of acetonitrile containing tolbutamide and propranolol (provided as an internal standard).
(§5) Positive control and test substance working solutions were spiked into plasma at a concentration of 1 μM and 5 μM, respectively. A 0-min sample was prepared by adding an 80 μL aliquot of each incubation mixture to 320 μL of the quench reagent to precipitate proteins. The mixture was incubated in a water bath at 37° C. with gentle shaking. Aliquots of 80 μL of each mixture were removed and placed in a clean 96-well plate containing 320 μL of the quench reagent to precipitate proteins at 15, 30, 45, and 60 min and centrifuged (5000×g, 15 minutes). 100 μL of the supernatant was placed in a 96-well assay plate to which 200 μL of ultrapure water had been added in advance, and analyzed by LC-MS/MS.

[2] = Plasma metabolic stability assay (mouse plasma)
Protocol: as §4, §5

Huh-7 cells = experiment: Cell colony forming assay, Huh-7; assay type: cell-based; details: Huh-7, 1 μM and 3 μM for 12 hours, 7 to 14 days; compared to Y102 or SNS-032
Protocol: (§1) To examine the anticancer efficacy of Y106 and Y108 in vitro, a cell colony formation assay was performed in hepatocellular carcinoma cell lines Huh-7 and Hep3B cells.
(§2) 500 cells were seeded into 6-well plates, and then treated with Y102, Y106,Y108, or SNS-032 at 1 μM and 3 μM for 12 hours, the medium was then replaced with fresh medium, and after 7 to 14 days, the cells were stained with 20% methanol+0.5% Crystal Violet for colony staining, and the number of cells was counted for quantitative analysis.

[3] = test system: Hep3B cells, hepatocellular carcinoma cell line; experiment: Anticancer efficacy in mouse model transplanted with Hep3B cells; assay type: in vivo, nude mice; details: Hep3B xenograft; for changes in cancer growth: 20 mg/kg oral (SNS-032 intraperitoneal), compared to Y102 and SNS-032 groups; for changes in cancer growth / changes in mouse body weight: 27 days; for changes in mouse body weight / weight of the extracted cancer: 20 mg/kg; for weight of the extracted cancer: day 27
Text: (§3) To evaluate in vivo efficacy using Hep3B cells, another hepatocellular carcinoma cell line, 3×10^6 Hep3B cells were transplanted into the right calves of nude mice to form cancer tissue, and then the anticancer efficacy of the new compositions Y106 and Y108 was compared with that of an existing CDK inhibitor Y102 or SNS-032.
The dosage, administration schedule, and administration route were applied in the same manner as in the method performed in the mouse model transplanted with Huh-7 cells in Example 3. After administration of the new compositions and the existing CDK inhibitors, changes in cancer growth and mouse body weight were measured for 27 days, and then on day 27, the cancer tissues were removed to confirm the size and weight thereof.

Hep3B cells = experiment: Cell colony forming assay, Hep3B; assay type: cell-based; details: 1 μM and 3 μM for 12 hours, 7 to 14 days, compared to Y102 or SNS-032
Protocol: as §1, §2

[4] = test system: A549 cells, non-small cell lung cancer cell line; experiment: Anticancer efficacy in mouse model transplanted with A549 cells; assay type: in vivo, nude mice; details: A549 xenograft; for changes in cancer growth: 20 mg/kg oral (SNS-032 intraperitoneal), administered for five days, compared to Y102 and SNS-032 groups; for changes in cancer growth / changes in mouse body weight: 25 days; for changes in mouse body weight / weight of the extracted cancer: 20 mg/kg; for weight of the extracted cancer: day 25
Protocol: as §3, with “in a mouse model transplanted with A549” for “using Hep3B”, “a non-small cell lung cancer” for “another hepatocellular carcinoma”, “1×10^6 A549” for “3×10^6 Hep3B”
The dose was the same for all mice (20 mg/kg), the vehicle, Y102, Y106, and Y108 were administered orally, and only SNS-032 was administered intraperitoneally. These were administered for five days, the size was measured twice a week using calipers to measure the changes in cancer growth and the mouse body weight for 25 days, and on day 25, the cancer tissue was removed to confirm the size and weight thereof.

[5] = test system: Huh-7 cells, hepatocellular carcinoma cell line; experiment: Anticancer efficacy in mouse model transplanted with Huh-7 cells; assay type: in vivo, nude mice; details: Huh-7 xenograft; for changes in cancer growth: 20 mg/kg oral (SNS-032 intraperitoneal), five times a week for two weeks, compared to Y102 and SNS-032 groups; for weight of the extracted cancer: day 14
Protocol: To evaluate in vivo efficacy, 1×10^7 Huh-7 cells were transplanted into the right calves of nude mice to form cancer tissue, and then the anticancer efficacy of the new compositions Y106 and Y108 was compared with that of an existing CDK inhibitor Y102 or SNS-032.
The dose was the same for all mice (20 mg/kg), the vehicle, Y102, Y106, and Y108 were administered orally, and only SNS-032 was administered intraperitoneally. These were administered five times a week for two weeks, the size was measured twice a week using calipers to measure the changes in cancer growth and the mouse body weight for 14 days, and on day 14, the cancer tissue was removed to confirm the size and weight thereof.

[6] = plasma
Protocol: as §4, §5

[7] = plasma; remark: listed apart in the source
Protocol: as §4, §5

Compound: CC(C)(C)C(=O)OC[C@@H]1O[C@H](n2cnc(N)c3c(C(N)=O)c(Br)nc2-3)[C@@H](O)[C@@H]1OC(=O)C(C)(C)C [Compound Y108, (2S,3S,4S,5S)-5-(4-amino-6-bromo-5-carbamoyl-1H-pyrrolo[2,3-d]pyrimidin-1-yl)-4-hydroxy-2-((pivaloyloxy)methyl)tetrahydrofuran-3-yl pivalate]
half-life at 5 μM [1]: 700 ± 42.5 min
plasma stability (in words) [1]: highest stability
colony formation (Huh-7 cells): remarkably reduced
half-life at 5 μM [2]: 7.25 ± 0.01 min
changes in cancer growth [3]: inhibited cancer growth more effectively
changes in mouse body weight [3]: no significant difference
weight of the extracted cancer [3]: least amount of cancer tissue
colony formation (Hep3B cells): remarkably reduced
changes in cancer growth [4]: inhibited cancer growth more clearly
changes in mouse body weight [4]: no significant difference
weight of the extracted cancer [4]: least amount of cancer tissue
changes in cancer growth ([5]; 14 days): significantly inhibited cancer growth
weight of the extracted cancer ([5]; 20 mg/kg): least amount of cancer tissue

Compound: CC1CC(OC(=O)C(O)c2ccccc2)CC(C)(C)N1C (stereo not drawn) [Eucatropin, reference compound]
half-life at 5 μM [1]: 16.7 ± 0.38 min
half-life at 5 μM [2]: 32.6 ± 4.81 min

Compound: CC(C)(C)c1cnc(CSc2cnc(NC(=O)C3CCNCC3)s2)o1 [SNS-032, reference compound]
changes in mouse body weight [3]: no significant difference
changes in mouse body weight [4]: no significant difference
mouse body weight ([5]; 20 mg/kg, 14 days): slightly reduced

The next lines start with results.

half-life at 5 μM [1]: 20.5 ± 0.34 min
half-life at 5 μM [2]: 2.67 ± 0.2 min
Compound: CC(C)C(=O)OC[C@@H]1O[C@H](n2cnc(N)c3c(C(N)=O)c(Br)nc2-3)[C@@H](O)[C@@H]1OC(=O)C(C)C [Compound Y105, (2S,3S,4S,5S)-5-(4-amino-6-bromo-5-carbamoyl-1H-pyrrolo[2,3-d]pyrimidin-1-yl)-4-hydroxy-2-((isobutyryloxy)methyl)tetrahydrofuran-3-yl isobutyrate]

half-life at 5 μM [1]: > 720 min
plasma stability (in words) [1]: highest stability
half-life at 5 μM [2]: 7.1 ± 0.07 min
Compound: CCC(C)(C)C(=O)OC[C@@H]1O[C@H](n2cnc(N)c3c(C(N)=O)c(Br)nc2-3)[C@@H](O)[C@@H]1OC(=O)C(C)(C)CC [Compound Y106, (2S,3S,4S,5S)-5-(4-amino-6-bromo-5-carbamoyl-1H-pyrrolo[2,3-d]pyrimidin-1-yl)-2-(((2,2-dimethylbutanoyl)oxy)methyl)-4-hydroxytetrahydrofuran-3-yl 2,2-dimethylbutanoate]
colony formation (Huh-7 cells): remarkably reduced
changes in cancer growth [3]: inhibited cancer growth more effectively
changes in mouse body weight [3]: no significant difference
weight of the extracted cancer [3]: least amount of cancer tissue
colony formation (Hep3B cells): remarkably reduced
changes in cancer growth [4]: inhibited cancer growth more clearly
changes in mouse body weight [4]: no significant difference
weight of the extracted cancer [4]: least amount of cancer tissue
changes in cancer growth ([5]; 14 days): significantly inhibited cancer growth
weight of the extracted cancer ([5]; 20 mg/kg): least amount of cancer tissue

half-life at 5 μM [1]: 26.6 ± 4.33 min
half-life at 5 μM [2]: 6.91 ± 0.11 min
Compound: CCC(C)(C)C(=O)OC[C@@H]1O[C@H](n2cnc(N)c3c(C(N)=O)c(Br)nc2-3)[C@@H](O)[C@@H]1O [Compound Y107, ((2S,3S,4S,5S)-5-(4-amino-6-bromo-5-carbamoyl-1H-pyrrolo[2,3-d]pyrimidin-1-yl)-3,4-dihydroxytetrahydrofuran-2-yl)methyl 2,2-dimethylbutanoate]

half-life at 5 μM [1]: 280 ± 3.06 min
half-life at 5 μM [2]: 7.77 ± 0.13 min
Compound: NC(=O)c1c(Br)nc2n([C@H]3O[C@@H](COC(=O)C45CC6CC(CC(C6)C4)C5)C(O)[C@H]3O)cnc(N)c1-2 (stereo partly drawn) [Compound Y109, ((2S,3S,4S,5S)-5-(4-amino-6-bromo-5-carbamoyl-1H-pyrrolo[2,3-d]pyrimidin-1-yl)-3,4-dihydroxytetrahydrofuran-2-yl)methyl(3S,5S,7S)-adamantane-1-carboxylate]

T1/2(min) Mouse [6]: 2.85 ± 0.02 min
T1/2(min) Human [7]: 4.57 ± 0.09 min
Compound: Ibulocydine
